Measured values taken from patent US5298626A, “Select cyclopent[b]indoles” (priority 1992, dated 1994).
“And” between values parts separate entries of the source, which are not always exact repeats. Equal entries are not always repeated. Where two headings read alike, the source gives them in different places.

Tests used:
[1] = biological target: α2-receptor; assay: 3H-Clonidine Binding: α2-Receptor; set-up: species or system rat (male Wistar); settings: 3 nM 3H-clonidine, rat cortical tissue, pH 7.7
Experimental: See references 1, 2 and 3 cited below. The interaction of a compound with central α2 -receptors is assessed in the ^3 H-clonidine binding assay.
2. Tris buffer containing physiological ions
3. [4-^3 H]-Clonidine hydrochloride (20-30 Ci/mmol) is obtained from New England Nuclear.
4. Clonidine-HCl is obtained from Boehringer Ingelheim. A stock solution of 0.1 mM clonidine is made up to determine nonspecific binding. This yields a final concentration of 1 μM in the assay (20 μl to 2 ml).
Male Wistar rats are sacrificed by decapitation and the cortical tissue rapidly dissected. The tissue is homogenized in 50 volumes of 0.05M Tris buffer, pH 7.7 (buffer 1b) with the Brinkman Polytron, then centrifuged at 40,000 g for 15 minutes. The supernatant is discarded and the pellet re-homogenized in the original volume of 0.05M Tris buffer, pH 7.7 and re-centrifuged as before. The supernate is discarded and the final pellet re-homogenized in 50 volumes of buffer 2b. This tissue suspension is then stored on ice. The final tissue concentration is […]. Specific binding is 1% of the total added ligand and 80% of total bound ligand.
100 μl--0.5M Tris-physiological salts, pH 7.7 (buffer 2a)
20 μl--Vehicle (for total binding) or 0. 1 mM clonidine (for nonspecific binding) or appropriate drug concentration
50 μl--^3 H-clonidine stock
1000 μl tissue suspension
Tissue homogenates are incubated for 20 minutes at […] with 3 nM 3 H-clonidine and varying drug concentrations, and thereafter immediately filtered under reduced pressure on Whatman GF/B filters. The filters are washed with three five ml volumes of ice-cold 0.05M Tris buffer, pH 7.7, and thereafter transferred to scintillation vials. Ten ml of Liquiscint counting solution is added to each sample which is then counted by liquid scintillation spectroscopy. Specific clonidine binding is defined as the difference between total bound and […]. The percent inhibition at each drug concentration is the mean of triplicate determinations.

[2] = biological target: T1, MAO-B (Rattus norvegicus, UniProt P19643); assay: biochemical; set-up: species or system rat (male Wistar)
T1 construct: served as the tissue source for mitochondrial MAO; from tissue; host or cells: whole brain minus cerebellum of male Wistar rats, P2 pellet (18,000 g)
T1 sequence (P19643 1-520): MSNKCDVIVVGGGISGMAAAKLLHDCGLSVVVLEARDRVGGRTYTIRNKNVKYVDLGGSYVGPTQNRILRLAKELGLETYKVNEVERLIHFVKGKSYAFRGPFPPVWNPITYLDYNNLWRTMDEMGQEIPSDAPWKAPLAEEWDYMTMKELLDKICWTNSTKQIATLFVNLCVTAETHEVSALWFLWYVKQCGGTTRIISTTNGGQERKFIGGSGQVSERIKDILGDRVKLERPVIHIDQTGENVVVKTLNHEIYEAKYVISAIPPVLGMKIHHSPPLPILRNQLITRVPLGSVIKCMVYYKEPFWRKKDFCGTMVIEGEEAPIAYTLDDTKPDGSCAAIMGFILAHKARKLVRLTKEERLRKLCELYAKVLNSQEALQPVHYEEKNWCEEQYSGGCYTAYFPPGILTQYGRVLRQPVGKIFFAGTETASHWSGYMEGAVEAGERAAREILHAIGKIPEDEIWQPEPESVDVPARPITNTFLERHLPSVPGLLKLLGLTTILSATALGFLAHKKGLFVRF
Experimental: Activity in Rat Brain Synaptosomes
(§1) To determine the selective inhibition of the two forms of monoamine oxidase (MAO).
Although various methods for measuring MAO activity are available, the described method involves the extraction of the radiolabeled deaminated metabolites of [^3 H]-5HT or [^14 C]-β-phenethylamine. This procedure allows MAO-A and MAO-B activities to be measured either simultaneously or individually (3).
A 5 mM stock solution is made up in 0.01N HCl. This is used to dilute the specific activity of the [^14 C]-PEA. b. β-[ethyl-1-^14 C]-phenethylaminehydrochloride(40-50 mCi/mmol) is obtained from New England Nuclear. c. Add 12 μl of [^14 C]-PEA to 2 ml of the 5 mM PEA solution. (Final amine concentration in the assay is 200 μM: see below.)
Equal amounts of MAO-A (5HT) and MAO-B (PEA) substrates are combined for simultaneously testing both MAO types, i.e. mixed stock solution of 2.5 mM 5HT and 2.5 mM PEA, 40 μl of this mixed solution gives a 200 μM final concentration of each amine in the assay. When testing only one MAO type, the individual 5 mM stock solutions must be diluted 1: 1 with distilled water prior to adding 40 μl to the incubation mixture; i.e., same 200 μM final amine concentration.
(§2) Male Wistar rats weighting 15-250 grams were sacrificed an removed. Whole brain minus cerebellum was homogenized in 30 volumes of ice-cold, phosphate-buffered 0.25M sucrose, using a Potter-Elvejhem homogenizer. The homogenate as centrifuged at 1000 g for 10 minutes and the supernatant (S1) decanted and recentifuged at 18,000 g for 20 minutes. […]
(§3) Tubes are preincubated for 15 minutes at 37° C. and the assay is started by adding 40 μl of combined substrate ([^3 H]-5HT and [^14 C]-PEA) at 15 second intervals. […] Tissue blank values are determined by adding the acid before the radioactive substrate. […] 10 ml of Liquiscint is added and the samples are counted using window settings for in ^14 C in one channel and ^3 H in the second channel. IC50 values are determined by log-probit analysis.

[3] = biological target: T2, MAO-A (Rattus norvegicus, UniProt P21396); assay: biochemical; set-up: species or system rat (male Wistar)
T2 construct: served as the tissue source for mitochondrial MAO; from tissue; host or cells: whole brain minus cerebellum of male Wistar rats, P2 pellet (18,000 g)
T2 sequence (P21396 1-526): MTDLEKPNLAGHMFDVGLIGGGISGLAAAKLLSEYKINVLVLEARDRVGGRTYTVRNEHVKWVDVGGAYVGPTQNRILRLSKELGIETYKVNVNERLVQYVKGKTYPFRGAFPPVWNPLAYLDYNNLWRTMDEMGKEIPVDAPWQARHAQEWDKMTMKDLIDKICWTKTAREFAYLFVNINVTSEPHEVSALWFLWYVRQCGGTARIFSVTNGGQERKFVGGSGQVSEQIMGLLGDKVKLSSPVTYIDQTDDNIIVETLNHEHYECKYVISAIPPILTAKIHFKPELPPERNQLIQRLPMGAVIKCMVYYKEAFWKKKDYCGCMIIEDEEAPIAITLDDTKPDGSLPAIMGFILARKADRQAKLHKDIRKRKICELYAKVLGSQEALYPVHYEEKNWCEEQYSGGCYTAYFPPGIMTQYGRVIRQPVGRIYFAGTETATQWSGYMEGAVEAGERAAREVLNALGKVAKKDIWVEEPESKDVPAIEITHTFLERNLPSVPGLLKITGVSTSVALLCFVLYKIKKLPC
Experimental: Inhibition of Type A and Type B Monoamine Oxidase
Activity in Rat Brain Synaptosomes
as §1
Although various methods for measuring MAO activity are available, the described method involves the extraction of the radiolabeled deaminated metabolites of [^3 H]-5HT or [^14 C]-β-phenethylamine.
a. Serotonin creatine SO4 (5HT) is obtained from Sigma Chemical Company. A 5 mM stock solution is made up in 0.01N HCl. This is used to dilute the specific activity of the [^3 H]-5HT. b. [^3 H]-5-Hydroxytryptamine binoxalate (20-30 Ci/mmol) is obtained from New England Nuclear. c. Add 12 μl of [^3 H]-5HT to 2 ml of the 5 mM 5HT solution. (Final amine concentration in the assay is 200 μM: see below.)
5. Equal amounts of MAO-A (5HT) and MAO-B (PEA) substrates are combined for simultaneously testing both MAO types, i.e. mixed stock solution of 2.5 mM 5HT and 2.5 mM PEA, 40 μl of this mixed solution gives a 200 μM final concentration of each amine in the assay. When testing only one MAO type, the individual 5 mM stock solutions must be diluted 1: 1 with distilled water prior to adding 40 μl to the incubation mixture; i.e., same 200 μM final amine concentration.
as §2, §3

[4] = system: Scopolamine Induced Memory Deficit; assay type: in vivo, mice
Experimental: In this assay mice are tested for their ability to remember an unpleasant stimulus for a period of 24 hours. A mouse is placed in a chamber that contains a dark compartment; a strong incandescent light drives it to the dark compartment, where an electric shock is administered through metal plates on the floor. The animal is removed from the testing apparatus and tested again, 24 hours later, for the ability to remember the electric shock.
If scopolamine, an anticholinergic that is known to cause memory impairment, is administered before an animal's initial exposure to the test chamber, the animal re-enters the dark compartment shortly after being placed in the test chamber 24 hours later. This effect of scopolamine is blocked by an active test compound, resulting in a greater interval before re-entry into the dark compartment.
The results for an active compound are expressed as the percent of a group of animals in which the effect of scopolamine is blocked, as manifested by an increased interval between being placed in the test chamber and re-entering the dark compartment.

[5] = biological target: T3, Brain AChE (acetylcholinesterase) (Rattus norvegicus, UniProt P37136); assay: biochemical; set-up: species or system rat (male Wistar); settings: rat striatum, read-out: Inhibitory Concentration, IC50
T3 construct: corpora striata dissected free, weighed and homogenized in 19 volumes; from tissue; host or cells: corpora striata of male Wistar rats, whole homogenate
T3 sequence (P37136 32-614): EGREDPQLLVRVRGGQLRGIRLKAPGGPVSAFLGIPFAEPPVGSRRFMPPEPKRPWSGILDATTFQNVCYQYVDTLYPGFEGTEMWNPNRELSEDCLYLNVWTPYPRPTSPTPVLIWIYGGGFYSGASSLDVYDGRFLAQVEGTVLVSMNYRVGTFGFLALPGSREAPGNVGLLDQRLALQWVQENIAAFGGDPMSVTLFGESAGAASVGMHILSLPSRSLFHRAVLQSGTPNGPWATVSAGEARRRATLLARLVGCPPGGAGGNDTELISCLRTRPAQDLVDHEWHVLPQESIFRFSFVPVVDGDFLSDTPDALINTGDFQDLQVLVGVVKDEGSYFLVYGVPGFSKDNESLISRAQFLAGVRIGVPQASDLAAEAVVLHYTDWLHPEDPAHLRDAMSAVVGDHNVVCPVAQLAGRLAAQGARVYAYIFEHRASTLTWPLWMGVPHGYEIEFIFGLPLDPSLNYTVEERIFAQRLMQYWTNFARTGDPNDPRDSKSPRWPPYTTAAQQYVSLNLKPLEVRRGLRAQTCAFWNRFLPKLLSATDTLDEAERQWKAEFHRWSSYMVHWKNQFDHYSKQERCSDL
Experimental: Cholinesterases are found throughout the body, both in the brain and in serum.
In Vitro Inhibition of Acetylcholinesterase Activity in Rat Striatum
The method described below was used in this invention for assaying cholinesterase activity. This is a modification of the method of Ellman et al., Biochem. Pharmacol. 7, 88 (1961).
1. 0.05M Phosphate buffer, pH 7.2
4. A 2 mM stock solution of the test drug is made up in a suitable solvent and q.s. to volume with 0.5 mM DTNB (reagent 3). […] If active, IC50 values are determined from the inhibitory activity of subsequent concentrations.
Male Wistar rats are decapitated, brains rapidly removed, corpora striata dissected free, weighed and homogenized in 19 volumes (approximately 7 mg protein/ml) of 0.05M phosphate buffer, pH 7.2 using a Potter-Elvehjem homogenizer.
Enzyme activity is measured with the Beckman DU-50 spectrophotometer. This method can be used for IC50 determinations and for measuring kinetic constants.
Blank values are determined for each run to control for non-enzymatic hydrolysis of substrate and these values are automatically subtracted by the kindata program available on kinetics soft-pac module. This program also calculates the rate of absorbance change for each cuvette.
Substrate concentration is 10 mM diluted 1:2 in assay yielding final concentration of 5 mM. […] IC50 values are calculated from log-probit analysis

[6] = system: monoamine oxidase type A and type B; settings: literature, reference (2); cited from earlier work

Compound `NC1CCC2c3ccccc3NC12` (stereo not shown) [1,2,3,3a,4,8b-Hexahydrocyclopent[b]indol-3-amine 2-naphthalene sulfonate hemihydrate] has an IC50 [1] of 1270 nM.

With `C#CCNC1CCc2c1[nH]c1ccccc21` (stereo not shown) [1,2,3,4-Tetrahydrocyclopent[b]indol-3-(2-propynyl)amine] the IC50 ([2]; substrate [14C]-PEA, 200 μM, read-out: Inhibitory Concentration - IC50, MAO-B) was 320 nM and the IC50 ([3]; substrate [3H]-5HT, 200 μM, read-out: Inhibitory Concentration - IC50, MAO-A) was 290 nM.

In the case of `CNC(=O)Oc1ccc2c(c1)c1c(n2C)C(NC2CC2)CC1` (stereo not shown) [3-(N-Cyclopropyl)amino-4-methyl-1,2,3,4-tetrahydrocyclopent[b]indol-7-yl methylcarbamate], the “% of Animals with Scopolamine Induced Memory Deficit Reversal” value (from here on “% of Animals”) ([4]; 0.63 mg/kg of body weight, s.c., retest at 24 hours) is reported as 27%, the “% of Animals” value ([4]; 2.5 mg/kg of body weight, s.c., retest at 24 hours) is reported as 33% and the IC50 [5] is reported as 3500 nM. It also gave an IC50 [2] of 420 nM and an IC50 [3] of 320 nM.

Work on `CNC(=O)Oc1ccc2c(c1)c1c(n2C)C(=NC2CC2c2ccccc2)CC1` (stereo not shown) [4-Methyl-3-[(2-phenylcyclopropyl)imino]-1,2,3,4-tetrahydrocyclopent[b]indol-7-yl methylcarbamate] yielded an IC50 [2] of 3700 nM and an IC50 [3] of 15200 nM.

`Cn1c2c(c3ccccc31)CCC2N` (stereo not shown) [4-methyl-1,2,3,4-tetrahydrocyclopent[b]indol-3-amine] gave an IC50 [1] of 1490 nM.

For `CNC(=O)Oc1ccc2c(c1)c1c(n2C)C(NCc2ccccc2)CC1` (stereo not shown) [4-methyl-3-phenylmethylamino-1,2,3,4-tetrahydrocyclopent[b]indol-7-yl methylcarbamate], the IC50 [5] was 1100 nM and 6200 nM.

With `Cn1c2c(c3cc(O)ccc31)CCC2=NCc1ccccc1` [4-methyl-3-phenylmethylimino-1,2,3,4-tetrahydrocyclopent[b]indol-7-ol] the IC50 [1] was 850 nM.

With `CN(C)CCC=C1c2ccccc2CCc2ccccc21` [Amitriptyline, reference compound] the IC50 [1] was 3900 nM.

For `C#CCN(C)CCCOc1ccc(Cl)cc1Cl` [Clorgyline], the “selectivity for type A / type B monoamine oxidase” value [6] is given as “selective inhibitor of the type A enzyme”.

With `CC[C@@H]1C(=O)OC[C@@H]1Cc1cncn1C` [Pilocarpine, reference compound] the “% of Animals” value ([4]; 5.0 mg/kg of body weight, s.c., retest at 24 hours) was 13%.

With `Nc1c2c(nc3ccccc13)CCCC2` [Tacrine, reference compound] the “% of Animals” value ([4]; mouse, in vivo) was 13%.

In the case of `CC(C)NNC(=O)c1ccncc1` [iproniazid], the “selectivity for type A / type B monoamine oxidase” value [6] is listed as “nonselective inhibitors”.

For `C#CCN(C)Cc1ccccc1` [pargyline], the “selectivity for type A / type B monoamine oxidase” value [6] is given as “selective inhibitors of the type B enzyme”.
